Reference: ChEMBL document CHEMBL4229333, “Effects of rigidity on the selectivity of protein kinase inhibitors” (Eur J Med Chem, 2018)
Values after ≈ are worked out from the molar mass of the structure shown.

Experiments:
[1] = biological target: Ephrin type-A receptor 2 (Homo sapiens) (UniProt P29317); assay: Inhibition of EPH-A2 (unknown origin) at 1 uM by mobility shift microfluidics platform based assay relative to control
[2] = biological target: Platelet-derived growth factor receptor alpha (Homo sapiens) (UniProt P16234); assay: Inhibition of PDGFR-alpha (unknown origin) at 1 uM by mobility shift microfluidics platform based assay relative to control
[3] = biological target: Protein NDRG1 (Homo sapiens) (UniProt Q92597); assay: Inhibition of NDRG1 (unknown origin) at 1 uM by mobility shift microfluidics platform based assay relative to control
[4] = biological target: Serine/threonine-protein kinase BRSK2 (Homo sapiens) (UniProt Q8IWQ3); assay: Inhibition of BRSK2 (unknown origin) at 1 uM by mobility shift microfluidics platform based assay relative to control
[5] = biological target: Serine/threonine-protein kinase 16 (Homo sapiens) (UniProt O75716); assay: Inhibition of STK16 (unknown origin) at 1 uM by mobility shift microfluidics platform based assay relative to control
Sequence of Serine/threonine-protein kinase 16 (Homo sapiens) (O75716 whole entry): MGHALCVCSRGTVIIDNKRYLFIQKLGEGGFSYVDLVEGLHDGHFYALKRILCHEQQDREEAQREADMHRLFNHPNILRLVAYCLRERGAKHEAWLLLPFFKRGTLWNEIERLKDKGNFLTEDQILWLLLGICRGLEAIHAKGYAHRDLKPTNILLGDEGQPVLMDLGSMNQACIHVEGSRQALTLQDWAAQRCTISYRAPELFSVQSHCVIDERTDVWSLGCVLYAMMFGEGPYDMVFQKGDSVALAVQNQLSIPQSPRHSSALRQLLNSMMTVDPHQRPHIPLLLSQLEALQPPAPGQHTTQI

[6] = biological target: Angiopoietin-1 receptor (Homo sapiens) (UniProt Q02763); assay: Inhibition of TIE2 (unknown origin) at 1 uM by mobility shift microfluidics platform based assay relative to control
[7] = biological target: Ribosomal protein S6 kinase alpha-4 (Homo sapiens) (UniProt O75676); assay: Inhibition of MSK2 (unknown origin) at 1 uM by mobility shift microfluidics platform based assay relative to control
[8] = biological target: Serine/threonine-protein kinase Sgk2 (Homo sapiens) (UniProt Q9HBY8); assay: Inhibition of SGK2 (unknown origin) at 1 uM by mobility shift microfluidics platform based assay relative to control
Sequence of Serine/threonine-protein kinase Sgk2 (Homo sapiens) (Q9HBY8 whole entry): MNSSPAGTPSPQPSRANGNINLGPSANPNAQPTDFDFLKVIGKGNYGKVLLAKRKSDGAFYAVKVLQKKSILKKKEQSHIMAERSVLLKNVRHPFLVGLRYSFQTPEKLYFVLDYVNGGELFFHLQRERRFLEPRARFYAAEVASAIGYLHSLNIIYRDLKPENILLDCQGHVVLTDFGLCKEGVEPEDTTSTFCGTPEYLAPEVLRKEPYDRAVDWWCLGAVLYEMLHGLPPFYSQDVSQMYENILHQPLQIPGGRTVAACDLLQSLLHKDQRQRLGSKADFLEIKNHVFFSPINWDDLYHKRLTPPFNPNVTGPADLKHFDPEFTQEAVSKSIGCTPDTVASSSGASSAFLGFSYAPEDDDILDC

[9] = Solubility of compound at 37 degC incubated for 24 hrs by HPLC method; type: physicochemical
[10] = biological target: Serine/threonine-protein kinase LATS2 (Homo sapiens) (UniProt Q9NRM7); assay: Inhibition of LATS2 (unknown origin) at 1 uM by mobility shift microfluidics platform based assay relative to control
[11] = biological target: Receptor tyrosine-protein kinase erbB-4 (Homo sapiens) (UniProt Q15303); assay: Inhibition of ERB-B4 (unknown origin) at 1 uM by mobility shift microfluidics platform based assay relative to control
[12] = biological target: Serine/threonine-protein kinase SIK1 (Homo sapiens) (UniProt P57059); assay: Inhibition of SIK (unknown origin) at 1 uM by mobility shift microfluidics platform based assay relative to control
[13] = biological target: Ephrin type-B receptor 3 (Homo sapiens) (UniProt P54753); assay: Inhibition of EPH-B3 (unknown origin) at 1 uM by mobility shift microfluidics platform based assay relative to control
[14] = biological target: Cytoplasmic tyrosine-protein kinase BMX (Homo sapiens) (UniProt P51813); assay: Inhibition of BMX (unknown origin) at 1 uM by mobility shift microfluidics platform based assay relative to control
[15] = biological target: Tyrosine-protein kinase ABL2 (Homo sapiens) (UniProt P42684); assay: Inhibition of ARG (unknown origin) at 1 uM by mobility shift microfluidics platform based assay relative to control
[16] = biological target: Serine/threonine-protein kinase Nek2 (Homo sapiens) (UniProt P51955); assay: Inhibition of NEK2 (unknown origin) at 1 uM by mobility shift microfluidics platform based assay relative to control
Sequence of Serine/threonine-protein kinase Nek2 (Homo sapiens) (P51955 whole entry): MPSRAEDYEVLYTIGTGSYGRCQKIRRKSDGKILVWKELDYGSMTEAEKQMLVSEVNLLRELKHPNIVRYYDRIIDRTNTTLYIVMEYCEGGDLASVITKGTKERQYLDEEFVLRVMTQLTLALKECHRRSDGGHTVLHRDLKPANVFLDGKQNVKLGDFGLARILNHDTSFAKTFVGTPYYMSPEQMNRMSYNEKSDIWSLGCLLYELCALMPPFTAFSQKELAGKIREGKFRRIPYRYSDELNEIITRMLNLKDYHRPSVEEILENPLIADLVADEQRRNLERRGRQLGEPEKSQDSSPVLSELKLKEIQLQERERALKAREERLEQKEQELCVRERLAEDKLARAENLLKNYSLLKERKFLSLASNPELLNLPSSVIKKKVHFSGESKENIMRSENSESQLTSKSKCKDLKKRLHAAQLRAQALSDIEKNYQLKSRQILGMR

[17] = biological target: RAF proto-oncogene serine/threonine-protein kinase (Homo sapiens) (UniProt P04049); assay: Inhibition of CRAF (unknown origin) at 1 uM by mobility shift microfluidics platform based assay relative to control
[18] = biological target: Protein kinase C theta type (Homo sapiens) (UniProt Q04759); assay: Inhibition of PKC-theta (unknown origin) at 1 uM by mobility shift microfluidics platform based assay relative to control
[19] = biological target: Insulin receptor-related protein (Homo sapiens) (UniProt P14616); assay: Inhibition of IRR (unknown origin) at 1 uM by mobility shift microfluidics platform based assay relative to control
[20] = test system: Serine/threonine-protein kinase B-raf (Homo sapiens), P15056 [V600E]; assay: Ratio of IC50 for inhibition of BRAF V600E mutant (unknown origin) after 20 mins by immunoblotting assay to IC50 for inhibition of full length FLAG-tagged BRAF V600E mutant (unknown origin) expressed in HEK293 cells assessed as decrease in MEK phosphorylation by immunoblotting assay; type: cell-based
[21] = biological target: Fibroblast growth factor receptor 1 (Homo sapiens) (UniProt P11362); assay: Inhibition of FGFR1 (unknown origin) at 1 uM by mobility shift microfluidics platform based assay relative to control
[22] = biological target: Serine/threonine-protein kinase MRCK beta (Homo sapiens) (UniProt Q9Y5S2); assay: Inhibition of MRCK-beta (unknown origin) at 1 uM by mobility shift microfluidics platform based assay relative to control
[23] = biological target: Tyrosine-protein kinase Mer (Homo sapiens) (UniProt Q12866); assay: Inhibition of MER (unknown origin) at 1 uM by mobility shift microfluidics platform based assay relative to control
[24] = biological target: Serine/threonine-protein kinase 25 (Homo sapiens) (UniProt O00506); assay: Inhibition of STK25 (unknown origin) at 1 uM by mobility shift microfluidics platform based assay relative to control
[25] = biological target: ALK tyrosine kinase receptor (Homo sapiens) (UniProt Q9UM73); assay: Inhibition of ALK (unknown origin) at 1 uM by mobility shift microfluidics platform based assay relative to control
[26] = biological target: Ribosomal protein S6 kinase alpha-1 (Homo sapiens) (UniProt Q15418); assay: Inhibition of RSK1 (unknown origin) at 1 uM by mobility shift microfluidics platform based assay relative to control
[27] = biological target: Serine/threonine-protein kinase MRCK alpha (Homo sapiens) (UniProt Q5VT25); assay: Inhibition of MRCK-alpha (unknown origin) at 1 uM by mobility shift microfluidics platform based assay relative to control
Sequence of Serine/threonine-protein kinase MRCK alpha (Homo sapiens) (Q5VT25 whole entry): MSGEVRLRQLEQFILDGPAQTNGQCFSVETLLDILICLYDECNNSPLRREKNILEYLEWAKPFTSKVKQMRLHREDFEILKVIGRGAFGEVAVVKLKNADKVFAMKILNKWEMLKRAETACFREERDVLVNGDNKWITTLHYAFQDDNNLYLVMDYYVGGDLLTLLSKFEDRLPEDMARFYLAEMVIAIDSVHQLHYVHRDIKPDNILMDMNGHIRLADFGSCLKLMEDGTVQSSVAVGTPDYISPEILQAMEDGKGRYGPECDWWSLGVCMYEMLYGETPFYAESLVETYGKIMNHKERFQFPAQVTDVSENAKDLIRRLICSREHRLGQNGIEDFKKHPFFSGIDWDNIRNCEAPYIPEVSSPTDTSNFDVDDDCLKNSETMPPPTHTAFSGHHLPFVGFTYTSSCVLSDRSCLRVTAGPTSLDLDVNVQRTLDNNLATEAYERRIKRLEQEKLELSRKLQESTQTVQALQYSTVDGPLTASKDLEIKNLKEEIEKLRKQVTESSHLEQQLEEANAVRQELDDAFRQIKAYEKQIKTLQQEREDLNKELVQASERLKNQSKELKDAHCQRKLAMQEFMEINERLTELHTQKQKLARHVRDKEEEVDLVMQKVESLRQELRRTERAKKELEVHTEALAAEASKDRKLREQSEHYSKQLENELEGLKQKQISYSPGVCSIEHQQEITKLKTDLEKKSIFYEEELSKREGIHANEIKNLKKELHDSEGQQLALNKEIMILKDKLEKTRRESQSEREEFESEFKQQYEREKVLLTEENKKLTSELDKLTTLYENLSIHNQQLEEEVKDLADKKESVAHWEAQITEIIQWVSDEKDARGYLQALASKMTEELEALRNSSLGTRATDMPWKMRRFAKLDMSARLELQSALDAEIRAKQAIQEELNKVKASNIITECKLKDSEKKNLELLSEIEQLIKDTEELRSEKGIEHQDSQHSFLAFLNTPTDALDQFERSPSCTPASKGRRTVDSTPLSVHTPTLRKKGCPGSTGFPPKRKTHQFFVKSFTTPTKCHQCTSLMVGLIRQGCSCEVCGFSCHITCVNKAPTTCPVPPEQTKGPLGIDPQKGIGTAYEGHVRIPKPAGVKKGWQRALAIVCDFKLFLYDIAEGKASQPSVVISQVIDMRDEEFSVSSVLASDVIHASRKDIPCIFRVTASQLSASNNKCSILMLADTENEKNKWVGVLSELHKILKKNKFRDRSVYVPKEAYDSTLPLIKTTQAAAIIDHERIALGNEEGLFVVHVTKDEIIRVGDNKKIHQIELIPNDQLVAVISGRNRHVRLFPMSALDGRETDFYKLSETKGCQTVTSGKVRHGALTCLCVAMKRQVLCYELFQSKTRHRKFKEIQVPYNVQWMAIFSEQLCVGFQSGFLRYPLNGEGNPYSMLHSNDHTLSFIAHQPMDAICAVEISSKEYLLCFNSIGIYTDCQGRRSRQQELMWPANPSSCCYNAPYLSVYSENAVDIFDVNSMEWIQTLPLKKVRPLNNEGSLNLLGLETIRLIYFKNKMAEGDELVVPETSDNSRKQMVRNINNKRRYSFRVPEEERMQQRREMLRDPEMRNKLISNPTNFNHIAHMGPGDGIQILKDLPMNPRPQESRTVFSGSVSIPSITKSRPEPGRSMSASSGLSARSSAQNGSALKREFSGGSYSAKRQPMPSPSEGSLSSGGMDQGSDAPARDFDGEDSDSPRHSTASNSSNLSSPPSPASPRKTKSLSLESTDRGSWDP

[28] = biological target: NT-3 growth factor receptor (Homo sapiens) (UniProt Q16288); assay: Inhibition of TRKC (unknown origin) at 1 uM by mobility shift microfluidics platform based assay relative to control
[29] = biological target: Tyrosine-protein kinase Tec (Homo sapiens) (UniProt P42680); assay: Inhibition of TEC (unknown origin) at 1 uM by mobility shift microfluidics platform based assay relative to control
[30] = biological target: Serine/threonine-protein kinase TBK1 (Homo sapiens) (UniProt Q9UHD2); assay: Inhibition of TBK1 (unknown origin) at 1 uM by mobility shift microfluidics platform based assay relative to control
Sequence of Serine/threonine-protein kinase TBK1 (Homo sapiens) (Q9UHD2 whole entry): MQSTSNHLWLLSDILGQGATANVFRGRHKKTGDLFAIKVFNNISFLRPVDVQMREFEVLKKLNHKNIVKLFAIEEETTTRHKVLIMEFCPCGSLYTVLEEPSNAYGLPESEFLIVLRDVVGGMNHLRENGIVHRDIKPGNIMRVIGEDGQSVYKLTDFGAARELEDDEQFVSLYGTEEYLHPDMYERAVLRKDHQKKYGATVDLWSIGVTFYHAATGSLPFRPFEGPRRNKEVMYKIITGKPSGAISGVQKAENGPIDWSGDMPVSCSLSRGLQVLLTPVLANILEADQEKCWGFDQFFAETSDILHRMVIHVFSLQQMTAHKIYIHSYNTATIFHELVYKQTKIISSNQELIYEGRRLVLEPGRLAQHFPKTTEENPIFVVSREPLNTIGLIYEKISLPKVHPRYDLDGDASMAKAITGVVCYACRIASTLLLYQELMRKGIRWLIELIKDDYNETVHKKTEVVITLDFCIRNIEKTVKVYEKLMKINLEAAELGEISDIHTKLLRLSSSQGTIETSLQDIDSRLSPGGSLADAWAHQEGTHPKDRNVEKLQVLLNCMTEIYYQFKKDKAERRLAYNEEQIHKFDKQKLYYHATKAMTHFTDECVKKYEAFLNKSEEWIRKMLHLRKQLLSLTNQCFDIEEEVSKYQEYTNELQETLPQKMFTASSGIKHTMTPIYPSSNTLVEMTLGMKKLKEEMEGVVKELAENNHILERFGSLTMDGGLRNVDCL

[31] = biological target: Fibroblast growth factor receptor 2 (Homo sapiens) (UniProt P21802); assay: Inhibition of FGFR2 (unknown origin) at 1 uM by mobility shift microfluidics platform based assay relative to control
[32] = biological target: Serine/threonine-protein kinase N1 (Homo sapiens) (UniProt Q16512); assay: Inhibition of PKN1 (unknown origin) at 1 uM by mobility shift microfluidics platform based assay relative to control
[33] = biological target: Vascular endothelial growth factor receptor 1 (Homo sapiens) (UniProt P17948); assay: Inhibition of FLT1 (unknown origin) at 1 uM by mobility shift microfluidics platform based assay relative to control
Sequence of Vascular endothelial growth factor receptor 1 (Homo sapiens) (P17948 whole entry): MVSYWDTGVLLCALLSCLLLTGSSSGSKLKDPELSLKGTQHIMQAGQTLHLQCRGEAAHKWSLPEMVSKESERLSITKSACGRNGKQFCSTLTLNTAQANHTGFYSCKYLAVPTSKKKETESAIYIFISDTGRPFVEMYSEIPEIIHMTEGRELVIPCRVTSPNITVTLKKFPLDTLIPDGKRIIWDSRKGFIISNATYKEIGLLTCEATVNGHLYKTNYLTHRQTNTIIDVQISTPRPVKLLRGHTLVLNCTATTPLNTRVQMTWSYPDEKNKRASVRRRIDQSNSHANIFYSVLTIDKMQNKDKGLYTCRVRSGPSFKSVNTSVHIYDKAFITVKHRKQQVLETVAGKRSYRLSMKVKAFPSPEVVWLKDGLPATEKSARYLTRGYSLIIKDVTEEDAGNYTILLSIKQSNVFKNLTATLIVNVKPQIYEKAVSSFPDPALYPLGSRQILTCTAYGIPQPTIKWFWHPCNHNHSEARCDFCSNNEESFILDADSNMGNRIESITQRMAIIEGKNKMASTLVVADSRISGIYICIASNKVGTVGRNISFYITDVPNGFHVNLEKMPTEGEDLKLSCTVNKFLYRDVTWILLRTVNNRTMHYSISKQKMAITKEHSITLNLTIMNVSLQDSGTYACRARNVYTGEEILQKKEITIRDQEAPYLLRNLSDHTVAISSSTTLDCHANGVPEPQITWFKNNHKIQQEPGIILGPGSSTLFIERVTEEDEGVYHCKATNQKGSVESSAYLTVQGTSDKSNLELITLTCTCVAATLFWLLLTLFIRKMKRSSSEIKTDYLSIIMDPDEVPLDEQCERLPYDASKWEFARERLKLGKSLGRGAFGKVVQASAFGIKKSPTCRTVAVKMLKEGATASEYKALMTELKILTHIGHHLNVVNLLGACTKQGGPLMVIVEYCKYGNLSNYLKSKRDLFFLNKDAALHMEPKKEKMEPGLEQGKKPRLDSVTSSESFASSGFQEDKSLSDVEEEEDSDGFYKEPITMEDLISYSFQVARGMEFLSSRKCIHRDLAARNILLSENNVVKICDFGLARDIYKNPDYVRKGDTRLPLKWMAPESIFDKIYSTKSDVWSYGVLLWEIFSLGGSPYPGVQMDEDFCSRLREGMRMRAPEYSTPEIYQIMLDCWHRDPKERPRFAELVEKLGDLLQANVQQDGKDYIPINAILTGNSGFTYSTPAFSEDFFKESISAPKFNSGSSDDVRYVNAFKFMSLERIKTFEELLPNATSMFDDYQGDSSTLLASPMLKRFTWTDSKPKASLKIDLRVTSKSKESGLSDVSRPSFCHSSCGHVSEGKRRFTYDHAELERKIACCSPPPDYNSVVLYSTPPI

[34] = biological target: Tyrosine-protein kinase ABL1 (Homo sapiens, UniProt P00519); assay: Inhibition of ABL1 (unknown origin) at 1 uM by mobility shift microfluidics platform based assay relative to control

In the case of `CC(C)n1nc(C#Cc2cccc(NC(=O)c3cccc(C(F)(F)F)c3)c2)c2c(N)ncnc21`, the inhibition [1] is reported as 100%, the inhibition [2] is reported as 100% and the inhibition [3] is reported as -3%. For the same molecule, the inhibition [4] was -3%, the inhibition [5] was 8% and the inhibition [6] was 96%. It also gave an inhibition [7] of 3%, an inhibition [8] of 0% and a solubility at 24 h [9] of 161 µM (≈ 74.8 µg/mL). It also gave an inhibition [10] of 0%, an inhibition [11] of 88% and an inhibition [12] of 43%. The inhibition [13] was 98%, the inhibition [14] was 98% and the inhibition [15] was 99%. For the same molecule, the inhibition [16] was -1%, the inhibition [17] was 118% and the inhibition [18] was 0%. The inhibition [19] was 2%, the Ratio IC50 [20] was 2 to 4 and the inhibition [21] was 98%. For the same molecule, the inhibition [22] was -1%, the inhibition [23] was 6% and the inhibition [24] was -5%. The inhibition [25] was 6%, the inhibition [26] was 9% and the inhibition [27] was 0%. The inhibition [28] was 59%, the inhibition [29] was 40% and the inhibition [30] was 6%. The inhibition [31] was 99%, the inhibition [32] was -2% and the inhibition [33] was 99%. It also gave an inhibition [34] of 98%.

`CC(C)n1nc(C#Cc2cccc3cc(-c4cccc(C(F)(F)F)c4)ncc23)c2c(N)ncnc21` showed an inhibition [1] of 90%, an inhibition [2] of 94% and an inhibition [3] of 6%. The inhibition [4] was 0%, the inhibition [5] was 2% and the inhibition [6] was 61%. It also gave an inhibition [7] of 5%, an inhibition [8] of -2% and a solubility at 24 h [9] of 60 µM (≈ 28.3 µg/mL). The inhibition [10] was -2%, the inhibition [11] was 4% and the inhibition [12] was 7%. The inhibition [13] was 86%, the inhibition [14] was 36% and the inhibition [15] was 94%. For the same molecule, the inhibition [16] was 0%, the inhibition [17] was 101% and the inhibition [18] was -2%. For the same molecule, the inhibition [19] was -3%, the Ratio IC50 [20] was 2 to 4 and the inhibition [21] was 91%. For the same molecule, the inhibition [22] was 1%, the inhibition [23] was 0% and the inhibition [24] was 3%. It also gave an inhibition [25] of 1%, an inhibition [26] of 1% and an inhibition [27] of 2%. For the same molecule, the inhibition [28] was 14%, the inhibition [29] was 2% and the inhibition [30] was 1%. It also gave an inhibition [31] of 96%, an inhibition [32] of 6% and an inhibition [33] of 89%. For the same molecule, the inhibition [34] was 96%.
